Drawing on patent publication US3985737A, “3-Sulfonate esters of cephalosporin” (Eli Lilly and Company, priority 1974, dated 1976), this text covers MIC and pKa for six compounds.

In brackets after ≈: the same amount, converted by molar mass. Read-outs that look alike come from different tables or passages of the source.

The test system of one series is Shigella sp. As to the kind of experiment: Standard Gradient-Plate method, MIC vs. Shigella sp. Format: cell-based. The following applies: in vitro, read-out: Minimum Inhibitory Concentration. An excerpt:
(§1) The 7-acylamido-3-cephem-3-sulfonate esters of the formula I wherein R1 is hydrogen (the free acid form) are useful antibiotic substances which are useful in combatting infections attributable to gram-positive and gram-negative bacteria and also penicillin resistant staphylococci. The antibacterial activity of these sulfonate esters is illustrated by the following in vitro test data obtained with representative compounds. In Table I below, the minimum inhibitory concentration (MIC) for representative compounds against gram-negative bacteria is presented. The data were obtained by the standard Gradient-Plate method.

The test system of a further series is Escherichia coli. Briefly: Standard Gradient-Plate method, MIC vs. Escherichia coli. Format: cell-based. Conditions: in vitro, read-out: Minimum Inhibitory Concentration.
From the text: as §1

Another series deals with Klebsiella pneumoniae. As to the kind of experiment: Standard Gradient-Plate method, MIC vs. Klebsiella pneumoniae. Format: cell-based. The following applies: in vitro, read-out: Minimum Inhibitory Concentration.
From the text: as §1

Another series deals with Aerobacter aerogenes. Briefly: Standard Gradient-Plate method, MIC vs. Aerobacter aerogenes. Format: cell-based. The following applies: Klebsiella aerogenes, in vitro, read-out: Minimum Inhibitory Concentration.
From the text: as §1

A further series concerns Salmonella heidelberg. As to the kind of experiment: Standard Gradient-Plate method, MIC vs. Salmonella heidelberg. Format: cell-based. The following applies: Salmonella enterica, in vitro, read-out: Minimum Inhibitory Concentration.
From the text: as §1

For a further series, the system named is Pseudomonas aeruginosa. As to the kind of experiment: Standard Gradient-Plate method, MIC vs. Pseudomonas aeruginosa. The class given is cell-based. The following applies: in vitro, read-out: Minimum Inhibitory Concentration.
From the text: as §1

For another series, the system named is Serratia marcescens. As to the kind of experiment: Standard Gradient-Plate method, MIC vs. Serratia marcescens. The class given is cell-based. The following applies: in vitro, read-out: Minimum Inhibitory Concentration.
From the text: as §1

A short description of another series: Electrometric titration. The class given is physicochemical. The following applies: 80% aqueous methyl cellosolve, 80 percent aqueous methyl cellosolve. An excerpt: Electrometric titration (80 percent aqueous methyl cellosolve) pKa 3.9.
Electrometric titration in 80 percent aqueous methyl cellosolve pKa 4.15.
Electrometric titration in 80 percent aqueous methyl cellosolve pKa 4.75.
Electrometric titration (80 percent aqueous methyl cellosolve) pKa 4.4.
Electrometric titration (80 percent aqueous methyl cellosolve) pKa 4.25.

What is called pKa is the pH at which an ionisable group is half protonated. For the compound `CCCCS(=O)(=O)OC1=C(C(=O)O)N2C(=O)C(NC(=O)Cc3cccs3)[C@H]2SC1` (stereo partly shown) [Compound 3, 7-[2-(2-thienyl)acetamido]-3-n-butylsulfonyloxy-3-cephem-4-carboxylic acid], the MIC with Shigella sp. is 6.5 µg/mL (≈ 14.1 µM); in the series with Escherichia coli, 8.8 µg/mL (≈ 19.1 µM); in the series with Klebsiella pneumoniae, 5.5 µg/mL (≈ 11.9 µM); in the series on Aerobacter aerogenes, 6 µg/mL (≈ 13 µM); in the series with Salmonella heidelberg it was 6 µg/mL (≈ 13 µM); with Pseudomonas aeruginosa, above 200 µg/mL. Moreover, in the series with Serratia marcescens, the MIC came out at 180 µg/mL (≈ 391 µM). For the same compound, the pKa in “Electrometric titration” (read-out: pKa) is 4.75.

For the compound `CS(=O)(=O)OC1=C(C(=O)O)N2C(=O)C(NC(=O)Cc3cccs3)[C@H]2SC1` (stereo partly shown) [Compound 1, 7-[2-(2-thienyl)acetamido]-3-methylsulfonyloxy-3-cephem-4-carboxylic acid], the MIC in the series on Shigella sp. is 10.7 µg/mL (≈ 25.6 µM); in the series on Escherichia coli, 11 µg/mL (≈ 26.3 µM); in the series with Klebsiella pneumoniae, 6.5 µg/mL (≈ 15.5 µM); in the series on Aerobacter aerogenes, 3.5 µg/mL (≈ 8.36 µM); with Salmonella heidelberg, 2 µg/mL (≈ 4.78 µM); in the series with Pseudomonas aeruginosa, above 200 µg/mL. In addition, the MIC in the series with Serratia marcescens is 110 µg/mL (≈ 263 µM). Further, the pKa in the series “Electrometric titration” (read-out: pKa) was 3.9.

With `Cc1ccc(S(=O)(=O)OC2=C(C(=O)O)N3C(=O)C(NC(=O)Cc4cccs4)[C@H]3SC2)cc1` (stereo partly shown) [Compound 4, 7-[2-(2-thienyl)acetamido]-3-(p-toluenesulfonyloxy)-3-cephem-4-carboxylic acid], the MIC was 19.5 µg/mL (≈ 39.4 µM) with Shigella sp.; 16.3 µg/mL (≈ 33 µM) in the series with Escherichia coli; 9.3 µg/mL (≈ 18.8 µM) with Klebsiella pneumoniae; 16.5 µg/mL (≈ 33.4 µM) in the series on Aerobacter aerogenes; 125 µg/mL (≈ 253 µM) in the series with Salmonella heidelberg; above 200 µg/mL with Pseudomonas aeruginosa. Moreover, in the series with Serratia marcescens, the MIC was above 200 µg/mL. For the same compound, the pKa in the series “Electrometric titration” (read-out: pKa) was 4.4.

In the case of `CCS(=O)(=O)OC1=C(C(=O)O)N2C(=O)C(NC(=O)Cc3cccs3)[C@H]2SC1` (stereo partly shown) [Compound 2, 7-[2-(2-thienyl)acetamido]-3-ethylsulfonyloxy-3-cephem-4-carboxylic acid], the MIC is 7 µg/mL (≈ 16.2 µM) in the series on Shigella sp.; 13.1 µg/mL (≈ 30.3 µM) in the series on Escherichia coli; 7 µg/mL (≈ 16.2 µM) in the series on Klebsiella pneumoniae; 3.5 µg/mL (≈ 8.09 µM) in the series on Aerobacter aerogenes; 4 µg/mL (≈ 9.25 µM) with Salmonella heidelberg; above 200 µg/mL in the series on Pseudomonas aeruginosa. For the same compound, the MIC with Serratia marcescens is 120 µg/mL (≈ 277 µM). Also, the pKa in the series “Electrometric titration” (read-out: pKa) is 4.15.

`O=C(Cc1cccs1)NC1C(=O)N2C(C(=O)O)=C(OS(=O)(=O)c3ccc(F)cc3)CS[C@H]12` (stereo partly shown) [Compound 5, 7-[2-(2-thienyl)acetamido]-3-(4-fluorobenzenesulfonyloxy)-3-cephem-4-carboxylic acid]: the MIC in the series on Shigella sp. was 16.5 µg/mL (≈ 33.1 µM); with Escherichia coli, 24 µg/mL (≈ 48.1 µM); with Klebsiella pneumoniae, 16.3 µg/mL (≈ 32.7 µM); in the series with Aerobacter aerogenes, 12 µg/mL (≈ 24.1 µM); in the series with Salmonella heidelberg, 13.5 µg/mL (≈ 27.1 µM); with Pseudomonas aeruginosa, above 200 µg/mL. Moreover, the MIC with Serratia marcescens was above 200 µg/mL. Further, the pKa in “Electrometric titration” (read-out: pKa) worked out at 4.25.

Take `CS(=O)(=O)OC1=C(C(=O)O)N2C(=O)C(NC(=O)[C@H](N)c3ccccc3)C2SC1` (stereo partly drawn) [Compound 6, 7-(D-phenylglycylamido)-3-methylsulfonyloxy-3-cephem-4-carboxylic acid]: the MIC in the series with Shigella sp. was 13.6 µg/mL (≈ 31.8 µM); with Escherichia coli, 19.5 µg/mL (≈ 45.6 µM); in the series with Klebsiella pneumoniae it was 5.5 µg/mL (≈ 12.9 µM); with Aerobacter aerogenes, 8.8 µg/mL (≈ 20.6 µM); in the series with Salmonella heidelberg, 7 µg/mL (≈ 16.4 µM); in the series on Pseudomonas aeruginosa, above 200 µg/mL. Besides, the MIC with Serratia marcescens stood at 100 µg/mL (≈ 234 µM). Moreover, the pKa in “Electrometric titration” (read-out: pKa) was found to be 3.6; in “Electrometric titration” (second of two pKa values, read-out: pKa (second value)), 6.75.
